Laboratory results published in patent US4438201A, “Amidohydrolase having ability to depantothenylate an antibiotic” (Sanraku-Ocean Co., Ltd., priority 1981, dated 1984).

Key:
[1] = tested on: amidohydrolase (enzyme of this invention); experiment: Experiment A: action of the enzyme on PS-5 and OA-6129A, HVPE bioautography and pantothenate bioassay; format: biochemical, Streptomyces fulvoviridis A933
Protocol: A mixture (50 μl) consisting of 10 μl of 0.2 M potassium phosphate buffer, pH 7.4, 20 μl of an antibiotic PS-5 solution (500 μg/ml) or an antibiotic OA-6129A solution (500 μg/ml), 10 μl of the enzyme solution obtained in Example 1, and 10 μl of water was incubated at 37° C. for 3 hours.
As a control, the mixture minus the enzyme solution was allowed to react under the same conditions.
3 μl of each of the resulting reaction solutions was spotted on Watmann No. 1 filter paper, and subjected to electrophoresis for 50 minutes at 1500 V/30 cm with Veronal buffer, pH 8.6. After electrophoresis, the products were bioautographed with Comamonas terrigena B-996 as assay organism.

[2] = tested on: amidohydrolase (enzyme of this invention); experiment: Experiment B: acyl exchange of OA-6129A with acyl-CoA; format: biochemical, Streptomyces fulvoviridis A933; conditions: acetyl-, n-propionyl-, n-butyryl- or glutaryl-CoA; 37° C., 3 hours
Protocol: A mixture consisting of 10 μl of 0.2 M potassium phosphate buffer, pH 7.4, 10 μl of a solution of antibiotic OA-6129A (500 μg/ml), 10 μl of acyl-CoA (5 μmoles/ml), 10 μl of the enzyme preparation from Example 1 and 10 μl of water was allowed to react at 37° C. for 3 hours. The product was assayed by high voltage paper electrophoresis (HVPE) in the same way as in Experiment A.
As controls, the same mixture minus acyl-CoA and the same mixture minus the enzyme solution were incubated under the same conditions as mentioned above.
Acetyl-CoA, n-propionyl-CoA, n-butyryl-CoA and glutaryl-CoA were used as acyl-CoA.

[3] = tested on: cell-free homogenate of Streptomyces cattleya (acylase); experiment: Example 2: action of cell-free homogenate on PS-5 and OA-6129A; format: biochemical, Streptomyces cattleya (NRRL 8057)
Protocol: Glucose (2.5 g), 1 g of corn steep liquor, 0.5 g of Pharmamedia® (a product of Traders Oil Mill Company), 0.5 g of yeast extract and 0.3 g of CaCO3 were dissolved in 100 ml of tap water, and the pH of the suspension was adjusted to 7.0. Then, 50 ml portions of the suspension were distributed in 250 ml Erlenmeyer flasks, and sterilized at 120° C. for 15 minutes. After cooling Streptomyces cattleya (NRRL 8057) was inoculated, and the flasks were cultivated at 28° C. for 90 hours with shaking.
Mycelia were collected by centrifugation and treated by the same procedure as in Example 1 to give 20 ml of a cell-free homogenate. With this fresh homogenate, the enzymological properties of Streptomyces cattleya acylase were examined.
A mixture containing 10 μl of 0.2 M potassium phosphate buffer, pH 7.4, 10 μl of an antibiotic PS-5 solution (500 μg/ml) or an antibiotic OA-6129A solution (500 μg/ml), 10 μl of acyl-CoA (5 μmoles/ml) and 20 μl of the cell-free homogenate was incubated at 37° C. for 4 hours. The product was analysed by HVPE in the same manner as in Experiment A.
The control reaction mixtures contained either no cell-free homogenate or no acyl-CoA. Acetyl-CoA and n-propionyl-CoA were used as acyl-CoA.

[4] = tested on: cell-free homogenate of Streptomyces cremeus subsp. auratilis; experiment: Example 3: action of cell-free homogenate on PS-5 and OA-6129A; format: biochemical; conditions: 37° C., 4 hours
Protocol: Soluble starch (5.2 g), 1.2 g of Essan-Miit, 0.16 g of NaCl, 0.08 g of K2 HPO4 and 0.04 g of MgSO4.7H2 O were dissolved in 80 ml of tap water and 40 ml portions of the suspension were filled in two 250 ml Erlenmeyer flasks. After autoclaving at 120° C. for 15 minutes, Streptomyces cremeus subsp. auratilis was inoculated, and cultivated at 28° C. for 68 hours. Using the same procedure as in Example 1, 20 ml of the cell-free homogenate was obtained. For confirmation of the enzyme activity, the following reactions were studied.
A mixture (50 μl) consisting of 10 μl of 0.2 M potassium phosphate buffer, pH 7.4, 10 μl of an antibiotic PS-5 solution (500 μg/ml) or an antibiotic OA-6129A solution (500 μg/ml), 20 μl of the cell-free homogenate and 10 μl of water was kept at 37° C. for 4 hours. The products were assayed by HVPE in the same way as in Experiment A.
As a control, the above reaction was carried out without the cell-free homogenate.

[5] = tested on: cell-free homogenate of Streptomyces argenteolus; experiment: Example 4: action of cell-free homogenate on PS-5 and OA-6129A; format: biochemical; conditions: tested as in Example 3
Protocol: Glycerol (4 g), 0.5 g of peptone, 0.2 g of glucose, 0.2 g of soluble starch, 0.5 g of Essan Miit®, 0.5 g of dry yeast, 0.5 g of NaCl and 0.2 g of CaCO3 were dissolved in 100 ml of tap water. Each 25 ml portion of the suspension was distributed in 250 ml Erlenmeyer flasks, and sterilized at 120° C. for 15 minutes. After cooling the culture medium, Streptomyces argenteolus was inoculated and cultivated at 28° C. for 68 hours with shaking. 20 ml of a cell extract was obtained. The same procedure of treatment as in Example 1 yielded 20 ml of a cell-free homogenate which was tested as explained in Example 3.

[6] = tested on: amidohydrolase (enzyme of this invention); experiment: Effects of metal ions, chelating agents and -SH inhibitors on enzyme activity; format: biochemical, Streptomyces fulvoviridis A933
Protocol: (§1) Ten microliters of 0.2 M piperazine-N,N'-bis(2-ethanesulfonic acid) [=PIPES] buffer, pH 7.3, and 10 μl of 100 mM N-chloroacetyl-L-phenylalanine (adjusted to pH 6-7 with NaOH) are dissolved in 20 μl of water. After 10 μl of an enzyme solution (30-50 μg/ml) is added, the mixture is incubated at 37° C. for 15 minutes. Then, 50 μl of 50% acetic acid is added to stop the enzymatic reaction. The amount of L-phenylalanine produced from the substrate in the reaction solution is determined by the Yemm-Cocking ninhydrin colorimetric method (E. W. Yemm & E. C. Cocking: Analyst, Vol. 80, page 209, 1955) or with an amino acid automatic analyzer (Model 835-50, Hitachi Limited).
The relative activity in Table 2 refers to the activity of the enzyme in the absence of such chemical as 100.

[7] = tested on: amidohydrolase (enzyme of this invention); experiment: Substrate specificity for N-acyl-amino acids (deacylation, standard assay); format: biochemical, Streptomyces fulvoviridis A933; conditions: N-chloroacetyl-L-phenylalanine as 100
Protocol: The relative activity in Table 1 refers to N-chloroacetyl-L-phenylalanine as 100.
as §1

[8] = tested on: amidohydrolase (enzyme of this invention); experiment: Experiment C: acyl transfer from acyl-CoA to 6-APA; format: biochemical, Streptomyces fulvoviridis A933; conditions: acetyl-CoA or glutaryl-CoA; 37° C., 3 hours
Protocol: 0.2 M Potassium phosphate buffer, pH 7.4 (10 μl), 10 μl of 6-aminopenicillanic acid (6-APA) (500 μg/ml), 20 μl of acyl-CoA (5 μmoles/ml) and 10 μl of the enzyme preparation from Example 1 were mixed and incubated at 37° C. for 3 hours. The products were analyzed by HVPE in the same way as in Example 2, employing acetic acid buffer, pH 4.5 Acetyl-CoA and glutaryl-CoA were used as acyl-CoA.
The controls were the same reaction mixtures minus enzyme solution and acyl-CoA respectively.

[9] = additive 1 mM, activity without additive as 100, 15 min
[10] = additive 0.1 mM, activity without additive as 100, 15 min

| Relative activity [7] | SMILES | Relative activity [6, 9] | further results |
| --- | --- | --- | --- |
|  | CCC1C(=O)N2C(C(=O)O)=C(SCCNC(=O)CCNC(=O)C(O)C(C)(C)CO)CC12 (stereo not drawn) [OA-6129A] |  | Depantothenylation of the substrate by the enzyme ([1]; 37° C., 3 hours, pH 7.4): removes the pantotheinyl group; Concentration of pantothenate in the reaction solution ([1]; bioassay with Saccharomyces carlsbergensis (ATCC 9080), enzyme present): 8 µg/mL; Exchange of the pantotheinyl group with the acyl group of acyl-CoA [2]: catalyzes the exchange of the pantotheinyl group; Acyl exchange with acyl-CoA by the cell-free homogenate ([3]; acetyl-CoA present): transform to PS-5; Depantothenylation by the cell-free homogenate ([3]; without acyl-CoA, 37° C., 4 hours): catalyzes the depantothenylation; Depantothenylation by the cell-free homogenate [4]: has the ability to eliminate the pantotheinyl group; Depantothenylation by the cell-free homogenate [5]: does depantothenylate |
|  | O=C(O)c1cc[c]([Hg][Cl])cc1 [p-CMB, pchloromercuribenzoic acid] | 0 |  |
| 0 | CC(=O)N[C@H](C)C(=O)O [N--Acetyl-D-alanine] |  |  |
|  | CCC1C(=O)N2C(C(=O)O)=C(SCCNC(C)=O)CC12 (stereo not drawn) [PS-5] |  | Deacetylation of the substrate by the enzyme ([1]; 37° C., 3 hours, pH 7.4): did not attack antibiotic PS-5 at all; Susceptibility of the substrate to the cell-free homogenate ([3]; irrespective of the presence of acyl-CoA, 37° C., 4 hours): not susceptible; Deacetylation by the cell-free homogenate [4]: no ability to deacetylate; Deacetylation by the cell-free homogenate [5]: no ability to deacetylate |
| 92.8 | CC(=O)N[C@@H](CC(C)C)C(=O)O [N--Acetyl-L-leucine] |  |  |
|  | O=S(=O)([O-])[O-].[Ni+2] [NiSO4] | 79.4 |  |
|  | [Cl][Sn][Cl] [SnCl2] | 64.4 |  |
|  | c1cnc2c(c1)ccc1cccnc12 [o-PT, ophenanthroline] | 56.4 |  |
| 112.7 | CSCC[C@H](NC=O)C(=O)O [N--Formyl-L-methionine] |  |  |
|  | [Cl][Cd][Cl] [CdCl2] | 10.2 |  |
| 39.8 | CC(=O)N[C@@H](CCCCN)C(=O)O [N--α-Acetyl-L-lysine] |  |  |
| 0 | CC(=O)N[C@@H](C(=O)O)C(C)C [N--Acetyl-D-valine] |  |  |
| 163.8 | CC(=O)N[C@@H](C)C(=O)O [N--Acetyl-L-alanine] |  |  |
|  | [Cl-].[Cl-].[Zn+2] [ZnCl2] | 7.7 |  |
| 16.4 | CC(C)C[C@H](NC=O)C(=O)O [N--Formyl-L-leucine] |  |  |
|  | [Cl-].[Cl-].[Mg+2] [MgCl2] | 93.6 |  |
|  | [Cl][Pb][Cl] [PbCl2] | 58.8 |  |

| Relative activity [7] | SMILES | Relative activity [6, 9] | further results |
| --- | --- | --- | --- |
| 23.9 | CC(=O)NCC(=O)O [N--Acetyl-glycine] |  |  |
| 2.7 | CC(=O)N[C@@H](CCC(=O)O)C(=O)O [N--Acetyl-L-glutamic acid] |  |  |
|  | [Cl][Hg][Cl] [HgCl2] | 0 | Relative activity ([6]; additive 0.01 mM, activity without additive as 100, 15 min): 84.5; Relative activity [6, 10]: 6.4 |
| 0 | CC(=O)N[C@H](CC(C)C)C(=O)O [N--Acetyl-D-leucine] |  |  |
|  | CC1(C)S[C@@H]2[C@H](N)C(=O)N2[C@H]1C(=O)O [6-APA, 6-aminopenicillanic acid] |  | Acyl transfer from acyl-CoA to the amino group [8]: converted to the corresponding acyl-6-APA |
|  | O=C(O)CN(CCN(CC(=O)O)CC(=O)O)CC(=O)O [EDTA, ethylenediaminetetracetic acid] |  | Relative activity ([6]; pipes buffer, pH 7.3, 15 min, 1000 µM): 95.8 |
|  | O=S(=O)([O-])[O-].[Fe+2] [FeSO4] | 53.2 |  |
| 0 | CSCC[C@@H](NC(C)=O)C(=O)O [N--Acetyl-D-methionine] |  |  |
|  | [Cl][Mn][Cl] [MnCl2] | 74.3 |  |
| 0 | CC(=O)N[C@H](Cc1ccccc1)C(=O)O [N--Acetyl-D-phenylalanine] |  |  |
| 262.1 | CSCC[C@H](NC(C)=O)C(=O)O [N--Acetyl-L-methionine] |  |  |
| 15.3 | CC(=O)N[C@@H](Cc1ccccc1)C(=O)O [N--Acetyl-L-phenylalanine] |  |  |
|  | [Cl][Cu][Cl] [CuCl2] | 0 | Relative activity [6, 10]: 87.5 |
| 32.4 | CC(=O)N[C@H](C(=O)O)C(C)C [N--Acetyl-L-valine] |  |  |
| 351.1 | CC(C)[C@H](NC(=O)CCl)C(=O)O [N--Chloroacetyl-L-valine] |  |  |
|  | [Cl-].[Cl-].[Co+2] [CoCl2] | 82.4 | Relative activity ([6]; additive 0.2 mM, activity without additive as 100, 15 min): 92.3; Relative activity ([6]; additive 2 mM, activity without additive as 100, 15 min): 3.8; Relative activity ([6]; additive 4 mM, activity without additive as 100, 15 min): 0 |
|  | [Co+2] [Co^++] |  | Effect of the ion on the enzyme (in words) ([6]; known acylases are activated or stabilized by 0.5 to 10 mM): inhibited |

| SMILES | Relative activity [7] | Relative activity [6, 9] | further results |
| --- | --- | --- | --- |
| CC(C)C[C@H](NC(=O)CCl)C(=O)O [N--Chloroacetyl-L-leucine] | 348.5 |  |  |
| O=C(CCl)N[C@@H](Cc1ccccc1)C(=O)O [N--Chloroacetyl-L-phenylalanine] | 100 |  |  |
